Legend:
[1] = system: retinal vessels in adult mice; assay: effect on retinal vessels in adult mice; format: in vivo, C57BL6J mice; details: 50 mg/kg/day
Experimental: Vehicle (control) or vehicle containing various concentrations of drug (volume = 50 µl in neonates and 100 µl in adult mice) is placed in the stomach by gavage. […] Adult C57BL6J mice are also treated by gavage with drug or vehicle and after 5 days, they are sacrificed and their eyes are processed for frozen or paraffin sections. […] Slides are rinsed with 0.05M Tris-buffered saline, pH 7.6 (TBS) and incubated 2 hours at room temperature with biotinylated lectin. […] Some slides are counterstained with hematoxyln and all are mounted with Cytoseal. […] The mean of the 13 measurements from each eye is used as a single experimental value.

c-erbB2 = c-erbB2 (Homo sapiens, UniProt P04626); assay: cellular autophosphorylation assay in transfected Chinese hamster ovary cells; format: cell-based; details: Chinese hamster ovary cells transfected with RTK gene
[2] = system: retinal vascular development; assay: retinal vascular development in neonatal mice; format: in vivo, C57/BL6J mice
Experimental: Litters of newborn C57/BL6J mice are divided into treatment and control groups which received daily subcutaneous injections of 10 mg/kg of drug or vehicle, respectively. At P7 or P10, mice are anesthetized with ether, and perfused with 1 ml of phosphate-buffered saline containing 50 mg/ml of fluorescein-labeled dextran (2x10^6 average mw, Sigma, St. Louis, MO).. The eyes are removed and fixed for 1 hour in 10% phosphate-buffered formalin. The cornea and lens are removed and the entire retina is carefully dissected from the eyecup, radially cut from the edge of the retina to the equator in all 4 quadrants, and flat-mounted in Aquamount. with photoreceptors facing upward.

[3] = system: retinal neovascularization in mice with ischemic retinopathy; assay: retinal neovascularization in mice with oxygen-induced ischemic retinopathy; format: in vivo, C57/BL6J mice
Experimental: Ischemic retinopathy is produced in C57/BL6J mice by the following method: • Seven-day-old mice and their mothers are placed in an airtight incubator and exposed to an atmosphere of 75 ± 3% oxygen for 5 days. Incubator temperature is maintained at 23 ± 2°C, and oxygen is measured every 8 hours with an oxygen analyzer. After 5 days, the mice are removed from the incubator, placed in room air, and drug treatment is begun. […] Vehicle (control) or vehicle containing various concentrations of drug (volume = 50 µl in neonates and 100 µl in adult mice) is placed in the stomach by gavage. After 5 days of treatment at P17, mice are sacrificed, eyes are rapidly removed and frozen in optimum cutting temperature embedding compound (OCT; Miles Diagnostics, Elkhart, IN) or fixed in 10% phosphate-buffered formalin and embedded in paraffin. Adult C57BL6J mice are also treated by gavage with drug or vehicle and after 5 days, they are sacrificed and their eyes are processed for frozen or paraffin sections.
Slides are rinsed with 0.05M Tris-buffered saline, pH 7.6 (TBS) and incubated 2 hours at room temperature with biotinylated lectin. […] Some slides are counterstained with hematoxyln and all are mounted with Cytoseal.
The entire eye is sampled by staining sections roughly 50-60 µm apart, which provided 13 sections per eye for analysis. […] The mean of the 13 measurements from each eye is used as a single experimental value.

[4] = system: choroidal neovascularization; assay: laser-induced choroidal neovascularization in mice; details: 50 mg/kg/day by gavage, two weeks after laser
insulin receptor = target: T1, insulin receptor (Homo sapiens, UniProt P06213); assay: cellular autophosphorylation assay in transfected Chinese hamster ovary cells; format: cell-based; details: Chinese hamster ovary cells transfected with RTK gene
T1 construct: expressed in transfected cells; host or cells: Chinese hamster ovary cells

Flk-1 = Flk-1 (Mus musculus, UniProt P35918); details: mouse versus human VEGF receptor 2
PDGF receptors = assay: cellular autophosphorylation assay in transfected Chinese hamster ovary cells; format: cell-based; details: Chinese hamster ovary cells transfected with RTK gene
Experimental: (§1) In vivo activity requires drugs to enter cells and therefore agents are tested in cellular autophosphorylation assays, using Chinese hamster ovary cells transfected with one of several RTK genes.

c-Kit = target: T2, c-Kit (Homo sapiens, UniProt P10721); assay: as above; format: cell-based; details: Chinese hamster ovary cells transfected with RTK gene
T2 construct: expressed in transfected cells; host or cells: Chinese hamster ovary cells
Experimental: as §1

VEGF receptors = assay: as above; format: cell-based; details: Chinese hamster ovary cells transfected with RTK gene
Experimental: as §1

[5] = P17 mice, 2.5 mg/kg twice a day
[6] = P17 mice, 25 mg/kg twice a day, gavage, 5 days

T2 sequence (P10721 26-976): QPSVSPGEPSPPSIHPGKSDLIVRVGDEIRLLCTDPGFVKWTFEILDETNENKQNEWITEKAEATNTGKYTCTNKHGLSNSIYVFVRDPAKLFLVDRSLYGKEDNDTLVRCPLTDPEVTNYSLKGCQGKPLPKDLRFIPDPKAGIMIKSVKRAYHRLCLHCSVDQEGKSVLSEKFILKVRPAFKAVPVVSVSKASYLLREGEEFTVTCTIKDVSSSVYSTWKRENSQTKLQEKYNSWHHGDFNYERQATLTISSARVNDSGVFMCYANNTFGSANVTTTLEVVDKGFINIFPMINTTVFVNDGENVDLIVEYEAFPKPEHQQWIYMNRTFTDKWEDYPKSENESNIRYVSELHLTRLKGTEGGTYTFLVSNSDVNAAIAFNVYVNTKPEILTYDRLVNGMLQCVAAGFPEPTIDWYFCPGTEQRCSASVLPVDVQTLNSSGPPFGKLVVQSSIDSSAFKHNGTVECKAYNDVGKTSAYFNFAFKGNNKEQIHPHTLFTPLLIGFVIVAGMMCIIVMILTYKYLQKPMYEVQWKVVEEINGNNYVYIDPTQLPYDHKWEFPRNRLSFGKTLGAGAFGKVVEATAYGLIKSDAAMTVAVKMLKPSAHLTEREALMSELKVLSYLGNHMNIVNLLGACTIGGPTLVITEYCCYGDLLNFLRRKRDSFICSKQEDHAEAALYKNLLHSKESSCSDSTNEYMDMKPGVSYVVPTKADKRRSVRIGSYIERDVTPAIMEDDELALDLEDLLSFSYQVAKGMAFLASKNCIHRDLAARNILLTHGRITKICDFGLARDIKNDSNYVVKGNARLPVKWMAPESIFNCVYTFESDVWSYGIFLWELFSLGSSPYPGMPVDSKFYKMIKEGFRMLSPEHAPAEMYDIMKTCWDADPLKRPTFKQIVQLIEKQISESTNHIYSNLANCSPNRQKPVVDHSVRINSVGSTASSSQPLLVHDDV
T1 sequence (P06213 28-1382, species assumed): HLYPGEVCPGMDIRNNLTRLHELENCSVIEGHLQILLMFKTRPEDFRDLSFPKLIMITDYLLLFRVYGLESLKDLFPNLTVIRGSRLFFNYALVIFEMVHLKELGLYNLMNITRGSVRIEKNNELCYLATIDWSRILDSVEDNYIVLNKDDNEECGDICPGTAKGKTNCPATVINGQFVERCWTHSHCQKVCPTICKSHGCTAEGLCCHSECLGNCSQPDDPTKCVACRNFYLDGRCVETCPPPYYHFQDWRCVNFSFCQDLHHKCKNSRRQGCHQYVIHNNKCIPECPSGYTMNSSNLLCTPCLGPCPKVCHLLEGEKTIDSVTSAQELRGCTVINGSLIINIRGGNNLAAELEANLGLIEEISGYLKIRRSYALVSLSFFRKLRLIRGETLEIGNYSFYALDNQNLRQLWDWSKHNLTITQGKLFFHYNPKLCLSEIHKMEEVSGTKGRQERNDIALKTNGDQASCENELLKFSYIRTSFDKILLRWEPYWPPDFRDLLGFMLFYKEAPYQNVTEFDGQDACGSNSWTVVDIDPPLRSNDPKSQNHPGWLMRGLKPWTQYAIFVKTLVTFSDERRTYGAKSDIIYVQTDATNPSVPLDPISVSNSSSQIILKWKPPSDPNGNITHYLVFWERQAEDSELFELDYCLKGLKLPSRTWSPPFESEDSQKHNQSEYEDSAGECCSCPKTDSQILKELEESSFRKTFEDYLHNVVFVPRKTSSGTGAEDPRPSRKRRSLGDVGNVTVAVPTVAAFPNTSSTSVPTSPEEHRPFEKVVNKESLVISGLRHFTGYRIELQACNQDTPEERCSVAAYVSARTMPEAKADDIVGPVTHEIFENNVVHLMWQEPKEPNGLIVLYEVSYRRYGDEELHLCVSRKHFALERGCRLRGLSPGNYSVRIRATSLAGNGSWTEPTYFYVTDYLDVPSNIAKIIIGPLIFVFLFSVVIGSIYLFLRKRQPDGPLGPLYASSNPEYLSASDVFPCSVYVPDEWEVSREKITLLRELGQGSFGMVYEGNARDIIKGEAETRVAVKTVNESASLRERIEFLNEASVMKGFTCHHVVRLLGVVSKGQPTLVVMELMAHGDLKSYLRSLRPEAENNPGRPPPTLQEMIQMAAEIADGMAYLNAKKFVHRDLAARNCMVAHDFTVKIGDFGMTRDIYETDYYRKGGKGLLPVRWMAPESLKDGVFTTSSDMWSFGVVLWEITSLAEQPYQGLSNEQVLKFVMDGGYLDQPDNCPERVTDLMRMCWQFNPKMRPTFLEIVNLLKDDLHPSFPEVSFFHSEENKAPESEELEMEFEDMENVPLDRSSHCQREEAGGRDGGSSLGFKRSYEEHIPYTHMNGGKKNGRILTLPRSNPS
Sequence of c-erbB2 (P04626 23-1255): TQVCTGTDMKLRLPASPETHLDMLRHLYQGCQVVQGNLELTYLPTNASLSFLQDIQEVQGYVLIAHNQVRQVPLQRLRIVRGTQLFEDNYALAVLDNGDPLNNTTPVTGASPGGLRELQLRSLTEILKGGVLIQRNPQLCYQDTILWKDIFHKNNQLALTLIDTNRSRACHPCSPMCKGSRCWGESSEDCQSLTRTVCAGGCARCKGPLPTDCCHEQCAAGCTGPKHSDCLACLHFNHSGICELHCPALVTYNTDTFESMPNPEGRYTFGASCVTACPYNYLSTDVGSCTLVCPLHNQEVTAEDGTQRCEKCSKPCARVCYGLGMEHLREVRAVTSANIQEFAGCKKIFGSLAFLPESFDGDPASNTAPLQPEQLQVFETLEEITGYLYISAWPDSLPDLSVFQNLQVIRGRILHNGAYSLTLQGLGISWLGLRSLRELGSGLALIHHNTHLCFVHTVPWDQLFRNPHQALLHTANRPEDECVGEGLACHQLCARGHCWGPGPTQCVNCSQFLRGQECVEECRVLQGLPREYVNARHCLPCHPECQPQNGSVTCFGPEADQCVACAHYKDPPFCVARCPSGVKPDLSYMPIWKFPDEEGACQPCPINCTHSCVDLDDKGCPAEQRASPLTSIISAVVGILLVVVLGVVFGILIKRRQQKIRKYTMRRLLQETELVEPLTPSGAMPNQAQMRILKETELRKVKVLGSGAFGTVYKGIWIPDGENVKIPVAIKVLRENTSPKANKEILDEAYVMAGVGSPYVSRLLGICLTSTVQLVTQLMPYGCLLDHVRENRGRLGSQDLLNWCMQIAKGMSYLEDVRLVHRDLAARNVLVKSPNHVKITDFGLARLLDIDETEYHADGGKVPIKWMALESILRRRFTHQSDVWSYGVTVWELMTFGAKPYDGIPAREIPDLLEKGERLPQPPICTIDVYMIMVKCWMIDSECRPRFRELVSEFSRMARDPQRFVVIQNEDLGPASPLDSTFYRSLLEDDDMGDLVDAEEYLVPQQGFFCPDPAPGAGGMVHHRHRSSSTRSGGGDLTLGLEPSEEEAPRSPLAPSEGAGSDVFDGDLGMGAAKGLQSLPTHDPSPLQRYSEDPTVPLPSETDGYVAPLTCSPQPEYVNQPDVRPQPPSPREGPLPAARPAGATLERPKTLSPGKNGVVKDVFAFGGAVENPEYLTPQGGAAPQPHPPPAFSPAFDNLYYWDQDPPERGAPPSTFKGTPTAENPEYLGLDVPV
Sequence of Flk-1 (P35918 832-1160 limits assumed): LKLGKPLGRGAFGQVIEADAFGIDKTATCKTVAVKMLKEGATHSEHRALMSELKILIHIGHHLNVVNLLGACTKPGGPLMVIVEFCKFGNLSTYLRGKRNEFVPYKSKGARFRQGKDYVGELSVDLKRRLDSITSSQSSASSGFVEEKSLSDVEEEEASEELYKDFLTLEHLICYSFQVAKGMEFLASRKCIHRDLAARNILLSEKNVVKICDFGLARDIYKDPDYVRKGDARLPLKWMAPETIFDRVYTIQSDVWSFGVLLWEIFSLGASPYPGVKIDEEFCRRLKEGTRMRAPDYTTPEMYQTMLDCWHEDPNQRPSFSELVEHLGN

| Compound | total area of endothelial staining in the retina or the appearance of retinal vessels compared to vehicle-treated mice [1] | autophosphorylation (c-erbB2) | extension of retinal vessels ([2]; P7, injections of 10 mg/kg starting on P0) | extension of the superficial capillary bed ([2]; P10, injections of 10 mg/kg starting on P0) | staining in the inner nuclear layer ([3]; P17 mice, 0.25 mg/kg) | total endothelial staining in the retina ([3]; P17 mice, 0.25 mg/kg) | endothelial cell staining in the retina [3, 5] | endothelial staining in the inner nuclear layer [3, 5] | endothelial cell staining in the inner nuclear layer and outer plexiform layer (deep capillary bed) ([3]; P17 mice, 25 mg/kg twice a day) | endothelial cell staining within the retina [3, 6] | neovascularization (endothelial cells on the surface of the retina) [3, 6] | choroidal neovascularization at the site of each laser-induced rupture of Bruch's membrane [4] | overlying retinal vessels [4] | integrated area of lectin staining per lesion ([4]; n = 5) [mm^2] | autophosphorylation (insulin receptor) | less potent as an inhibitor of mouse VEGF receptor 2 compared to the human receptor (Flk-1) | autophosphorylation (PDGF receptors) | autophosphorylation (c-Kit) | autophosphorylation (VEGF receptors) | endothelial staining in the retina ([3]; dose comparable to the highest dose of CGP 79787D) |
| --- | --- | --- | --- | --- | --- | --- | --- | --- | --- | --- | --- | --- | --- | --- | --- | --- | --- | --- | --- | --- |
| Clc1ccc(Nc2nnc(Cc3ccncc3)c3ccccc23)cc1 [CGP 79787D] | no difference | poor inhibitor | only extended about half way to the periphery | has not yet reached the edge of the retina | no identifiable decrease | decreased total endothelial staining in the retina that is not statistically significant | significantly less than vehicle-treated controls | some decrease | striking absence | dramatic decrease | complete inhibition | very little if any | appeared normal | 0.01124±0.001483 | poor inhibitor | about 10 fold | inhibits | inhibits | inhibits | – |
| O=c1c(-c2ccc(O)cc2)coc2cc(O)cc(O)c12 [Genistein, 4', 5,7-trihydroxyisoflavone, reference compound] | – | – | – | – | – | – | – | – | – | – | – | – | – | – | – | – | – | – | – | no significant decrease |

Source: patent publication EP1105136B1, “METHOD FOR TREATING OCULAR NEOVASCULAR DISEASES” (Novartis AG, priority 1998, dated 2000)
